These results are taken from US9409893B2, “Heteroaryl derivatives and uses thereof” (Jacobus Pharmaceutical Company, Inc., priority 2012, dated 2016).

Marks after values point to notes of the source that are not given here.

One assay deals with P. falciparum strain D6. Put plainly: [3H]-hypoxanthine growth inhibition assay, P. falciparum D6. In kind it is cell-based. The following applies: Plasmodium falciparum; P. falciparum D6 (sensitive to chloroquine and pyrimethamine), [3H]-hypoxanthine incorporation; read-out: D6 IC50. An outline of the steps:
(§1)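 Parasites cultured in human O Rh+ RBCs in RPMI-1640-LPLF (low PABA and folic acid) with 10% human plasma, pH 6.9, 37° C, 5% O2/5% CO2/90% N2. Sorbitol-synchronised ring-stage cultures started at 1% parasitaemia; growth measured as [3H]-hypoxanthine incorporation in hypoxanthine-free medium. Compound stocks 1 mM in DMSO.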

For the next assay, the system named is P. falciparum strain W2. In words: [3H]-hypoxanthine growth inhibition assay, P. falciparum W2. The following applies: Plasmodium falciparum; P. falciparum W2 (resistant to chloroquine and pyrimethamine), [3H]-hypoxanthine incorporation; read-out: W2 IC50. In kind it is cell-based. An outline of the steps:
as §1

In assay [1] the test system is Plasmodium berghei (KBG-173 strain). Put plainly: Plasmodium berghei assay in vivo (modified Thompson Test) in CD-1 mice. The following applies: bid on days 3, 4 and 5; for Average Days Survival: 31 day experiment. Here is the method: In vivo antimalarial activity was tested in male or female Charles River CD-1 mice that were 4-5 weeks old and weighed 20-25 g They were housed in groups of 3 or 4 in standard plastic cages with wire tops, Bed-o-Cob® bedding, 12 hr/day of light, and maintained at 75° F. They were fed a standard Ralston Purina mouse chow and the cages and bottles were changed twice a week. Test compounds were ground in a mortar and pestle and diluted with enough vehicle to give a volume of 10 mL/kg of mouse weight. The oral doses were prepared in 0.5% hydroxyethylcellulose (Union Carbide Corp. WP 4400)/0.1% Tween-80 (Fisher Scientific T164-500). The amount of drug was calculated on the free base weight. The mice were infected intraperitoneally on day 0 with 5×10^4 erythrocytes parasitized with Plasmodium berghei (KBG-173 strain) from a donor mouse having a parasitemia between 5-10%. On days 3, 4 and 5 the test compounds were administered bid, spaced 6 hr apart, by oral gavage to the mice. Activity was measured by survival, with full activity defined as all animals living at day 31. Partial activity is defined as days of increased survival versus the infected non-treated controls. This in vivo model is a modification of the Thompson Test. For further description see Ager, A. L, Jr. Rodent Malaria Models. In Handbook of Experimental Pharmacology: Antimalarial Drugs. 1. 68/1; Peters, W., Richards, W. H. G., Eds.: Springer-Verlag: Berlin, 1984, pp. 231-33.

Where [2] appears, read: Plasmodium berghei, 744 h, 4 mg/kg/day oral, CD-1 mice infected with P. berghei, read-out: Number of mice alive at day 31 (converted).
[3] abbreviates: Plasmodium berghei, 744 h, 8 mg/kg/day oral, CD-1 mice infected with P. berghei, read-out: Number of mice alive at day 31 (converted).
The mark [4] stands for this setting: Plasmodium berghei, 744 h, 16 mg/kg/day oral, CD-1 mice infected with P. berghei, read-out: Number of mice alive at day 31 (converted).
Where [5] appears, read: Plasmodium berghei, 744 h, 32 mg/kg/day oral, CD-1 mice infected with P. berghei, read-out: Number of mice alive at day 31 (converted).
Where [6] appears, read: Plasmodium berghei, 744 h, 64 mg/kg/day oral, CD-1 mice infected with P. berghei, read-out: Number of mice alive at day 31 (converted).

As for `CC(C)(C)NCc1cc(C(C)(C)C)cc(-c2ccc(C(F)(F)F)nc2)c1O.Cl` [Example 1, 4-(tert-Butyl)-2-((tert-butylamino)methyl)-6-(6-(trifluoromethyl)pyridin-3-yl)phenol hydrochloride], the results for the IC50 in the assay with P. falciparum strain D6 and in the assay on P. falciparum strain W2 were 13 nM and 4 nM, respectively. In addition, the “Average Days Survival” value in assay [1] (2 mg/kg/day oral) is more than 27 days; in assay [1] (4 mg/kg/day oral) it was >31* days; in assay [1] (8 mg/kg/day oral) it was >31* days; in assay [1] (16 mg/kg/day oral), >31* days; in assay [1] (32 mg/kg/day oral), >31* days; in assay [1] (64 mg/kg/day oral), >31* days. In assay [1] (Plasmodium berghei, 744 h, 2 mg/kg/day oral, CD-1 mice infected with P. berghei, read-out: Number of mice alive at day 31 (converted)), the responders at 2 mg/kg is 71.4%. Further, the responders at 4 mg/kg in assay [1] (setting [2]) is 100%. Moreover, in assay [1] (setting [3]), the responders at 8 mg/kg is 100%. In addition, the responders at 16 mg/kg in assay [1] (setting [4]) is 100%. Further, the responders at 32 mg/kg in assay [1] (setting [5]) is 100%. The responders at 64 mg/kg in assay [1] (setting [6]) was 100%.

With `CC(C)(C)NCc1cc(C(C)(C)C)cc(-c2cnc(C(F)(F)F)nc2)c1O.Cl` [Example 33, 4-(tert-Butyl)-2-((tert-butylamino)methyl)-6-(2-(trifluoromethyl)pyrimidin-5-yl)phenol hydrochloride], the IC50 in the assay on P. falciparum strain D6 worked out at 10 nM; with P. falciparum strain W2 it was 3 nM. Besides, the “Average Days Survival” value is more than 30 days in assay [1] (4 mg/kg/day oral); >31* days in assay [1] (8 mg/kg/day oral); >31* days in assay [1] (16 mg/kg/day oral); >31* days in assay [1] (32 mg/kg/day oral); >31* days in assay [1] (64 mg/kg/day oral). Further, the responders at 4 mg/kg in assay [1] (setting [2]) is 85.7%. In addition, the responders at 8 mg/kg in assay [1] (setting [3]) was 100%. Further, in assay [1] (setting [4]), the responders at 16 mg/kg is 100%. Moreover, in assay [1] (setting [5]), the responders at 32 mg/kg is 100%. Further, the responders at 64 mg/kg in assay [1] (setting [6]) is 100%.

With `CC(C)(C)NCc1cc(C(C)(C)C)cc(-c2cnc(C(F)(F)F)c(F)c2)c1O.Cl` [Example 34, 4-(tert-Butyl)-2-((tert-butylamino)methyl)-6-(5-fluoro-6-(trifluoromethyl)pyridin-3-yl)phenol hydrochloride], the results for the IC50 in the assay with P. falciparum strain D6 and in the assay on P. falciparum strain W2 were 8 nM and 2 nM, respectively. For the same molecule, the “Average Days Survival” value in assay [1] (4 mg/kg/day oral) is recorded as more than 28 days; in assay [1] (8 mg/kg/day oral) it was >31* days; in assay [1] (16 mg/kg/day oral), >31* days; in assay [1] (32 mg/kg/day oral), >31* days; in assay [1] (64 mg/kg/day oral), >31* days. The responders at 4 mg/kg in assay [1] (setting [2]) is 85.7%. The responders at 8 mg/kg in assay [1] (setting [3]) was 100%. Besides, the responders at 16 mg/kg in assay [1] (setting [4]) is 100%. Moreover, in assay [1] (setting [5]), the responders at 32 mg/kg was 100%. For the same molecule, the responders at 64 mg/kg in assay [1] (setting [6]) is 100%.

One may read the IC50 as the concentration that gives 50% inhibition.
